Source: US8865684B2, “Morpholin-4-ium 4 methoxyphenyl (morpholino) phosphinodithioate (GYY4137) as a novel vasodilator agent” (National University of Singapore, priority 2009, dated 2014)

Key:
[1] = tested on: phenylephrine-precontracted rat aorta; experiment: tissue or blood
[2] = tested on: Langendorff-perfused rat heart; experiment: Langendorff-perfused rat heart; conditions: at 30 minutes
Protocol: (§1) For experiments using perfused kidney or heart, Sprague-Dawley rats (male; weight, 230 to 270 g) were anesthetized as described above. […] In kidneys, dose-response curves (volumes <10 μL) were obtained for bolus-injected noradrenaline, angiotensin II, or U46619.

[3] = H2S release in vitro, DTNB assay; assay type: physicochemical; conditions: phosphate buffer
[4] = tested on: anesthetized rat; experiment: Blood pressure in the anesthetized rat; assay type: in vivo
[5] = tested on: isolated perfused rat kidney; experiment: Isolated perfused rat kidney, perfusion pressure
Protocol: as §1

[6] = GYY4137 133 μmol/kg IV or IP; NaHS 20 μmol/kg IV; up to 180 minutes
Protocol: Blood (0.5 mL) was withdrawn at timed intervals, anticoagulated with heparin (50 U/mL), and centrifuged (2000 g, 20 minutes). […] The zinc acetate assay measures free H2S plus related species including HS^− (hydrosulfide anion) and S2^− (sulfide). Accordingly, results for plasma H2S reported herein indicate the sum total of these species. All experiments on intact animals were undertaken with the approval of the local National University of Singapore Institutional Animal Care and Use Committee.

[7] = tested on: rat aortic vascular smooth muscle cells (A10); experiment: cAMP and cGMP in cultured vascular smooth muscle cells (ELISA); assay type: cell-based; conditions: 100 μmol/L, 45 minutes, isobutyl methylxanthine 300 μmol/L; control 11.3±1.4; n=6
Text: Normal rat aortic vascular smooth muscle cells (A10) were obtained from the American Type Culture Collection (ATCC, Manassas, Va.).

## S [NaHS, sodium hydrosulfide]
[1]
  time course: response to a standard concentration of phenylephrine after drug: did not reduce
  vasorelaxant effect after removal of the endothelium or exposure to L-NAME or ODQ: reduced
  vasorelaxant effect in presence of KATP channel blockers (glibenclamide or PNU37883A): reduced
[1]; Rattus norvegicus, phenylephrine-precontracted, read-out: EC50, relaxation of aortic rings
  EC50: 274 ± 22.2 µM
[1]; Rattus norvegicus, phenylephrine-precontracted, read-out: Emax, relaxation of aortic rings
  Emax: 63.4 ± 3.3%
[1]; concentration used for time course experiments
  approximate EC70: ~300 µM
[2]; 100 μmol/L
  reduction of cardiac contractility (left ventricular diastolic pressure): 42.0±7.8%
[2]; NaHS 100 μmol/L
  reduction of heart rate: 53.2±6.6%
[3]
  H2S release in the DTNB assay: instantaneous
[4]; NaHS 2.5 to 20 μmol/kg IV, GYY4137 26.6 to 133 μmol/kg IV
  effect on blood pressure: immediate, transient (10 to 30 seconds), and dose-related falls
[5]; bolus 10 nmol, n=10
  transient fall in perfusion pressure: 10.2±2.8 mm Hg
[5]; bolus 5 μmol, n=8
  fall in perfusion pressure (biphasic response): 11.6±4.5 mm Hg
  rise in perfusion pressure (biphasic response): 22.7±6.7 mm Hg
[6]
  plasma H2S (H2S, HS−, S2−) concentration: did not elevate

## C=C[C@@]1(C)CC(=O)[C@]2(O)[C@@]3(C)[C@@H](O)CCC(C)(C)[C@@H]3[C@H](O)[C@H](OC(C)=O)[C@@]2(C)O1 [forskolin]
[7]
  cAMP concentration: 79.6 ± 1.6 nmol/L

## C1CCC(N=C(NC23CC4CC(CC(C4)C2)C3)N2CCOCC2)CC1.Cl [PNU37883A]
[4]; 15 minutes after PNU37883A 26.2 μmol/kg IP, versus 105.6±3.5 before injection, n=5, P=0.053
  blood pressure after PNU37883A: 117.2±3.7 mm Hg
